The PolyMetriX glass transition set
± gives the standard deviation of the reports.

Row | Compound | glass transition temperature
1 | */C=C/c1cc(OCC(CC)CCCC)c(*)cc1OC (repeat unit) | 79.00 °C
2 | *Oc1ccc(C(C)(C)c2ccc(OC(=O)c3ccc(C(*)=O)cc3)c(C(C)CC)c2)cc1C(C)CC (repeat unit) | 90.00 °C
3 | *NC(CCC(=O)OCc1ccc(F)cc1)C(*)=O (repeat unit) | 46.90 °C
4 | *c1ccc2c(c1)C(=O)N(c1c(C)cc(C)c(N3C(=O)c4ccc(C(*)(C(F)(F)F)C(F)(F)F)cc4C3=O)c1C)C2=O (repeat unit) | 377.00 °C
5 | *c1ccc(C(=O)OCCCCCCOC(=O)c2ccc(-c3nnc(*)s3)cc2)cc1 (repeat unit) | 125.00 °C
6 | *CC(=O)Nc1ccc(Oc2c(F)c(F)c(Oc3ccc(NC(=O)c4ccc5c(c4)C(=O)N(*)C5=O)cc3)c(F)c2F)cc1 (repeat unit) | 254.00 °C
7 | *CCOCCOCCOCCOCCOCCOc1ccc(C(=O)Nc2cc(NC(=O)c3ccc(O*)cc3)cc(-c3nc4ccccc4[nH]3)c2)cc1 (repeat unit) | 125.00 °C
8 | *OC(F)(C(=O)[N]([Li])S(=O)(=O)C(F)(F)C(*)(F)F)C(F)(F)F (repeat unit) | 67.00 °C
9 | *c1ccc(C(c2ccc(N3C(=O)c4cc(-c5ccc(C(C)(C)C)cc5)c(-c5cc6c(cc5-c5ccc(C(C)(C)C)cc5)C(=O)N(*)C6=O)cc4C3=O)cc2)(C(F)(F)F)C(F)(F)F)cc1 (repeat unit) | 381.00 °C
10 | *c1ccc2c(c1)C(=O)N(c1cccc(Oc3ccc(Oc4cccc(N5C(=O)c6ccc(C(*)(C(F)(F)F)C(F)(F)F)cc6C5=O)c4)cc3)c1)C2=O (repeat unit) | 230.00 °C
11 | *c1ccc(S(=O)(=O)c2ccc(-n3nccc3-c3cccc(-c4ccnn4*)c3)cc2)cc1 (repeat unit) | 218.00 °C
12 | *c1ccc2c(c1)C(=O)N(c1cc(-c3ccc(O)c(N4C(=O)c5ccc(C(*)(C(F)(F)F)C(F)(F)F)cc5C4=O)c3)ccc1O)C2=O (repeat unit) | 370.00 °C
13 | */C(=C(/*)c1ccc([Si](C(C)C)(C(C)C)C(C)C)cc1)c1ccccc1 (repeat unit) | 250.00 °C
14 | *=NP(=NP(=NC(=*)Oc1ccc(OC)cc1)(Oc1ccc(OC)cc1)Oc1ccc(OC)cc1)(Oc1ccc(OC)cc1)Oc1ccc(OC)cc1 (repeat unit) | 37.00 °C
15 | *CC(*)c1ccc(CCC)cc1 (repeat unit) | 46.8 °C
16 | *CC(*)(C)C(=O)Oc1ccc(/C=C/c2ccccc2)cc1 (repeat unit) | 143.00 °C
17 | *c1cc(C(c2ccc(OCCN(C)c3ccc(/C=C/C4=CC(=C(/C#N)C(=O)OCc5ccc(Oc6c(F)c(F)c(F)c(F)c6F)cc5)/CC(C)(C)C4)cc3)c(N3C(=O)c4ccc(Oc5ccc6c(c5)C(=O)N(*)C6=O)cc4C3=O)c2)(C(F)(F)F)C(F)(F)F)ccc1OCCN(c1ccccc1)c1ccc(/C=C/C2=CC(=C(/C#N)C(=O)OCc3ccc(Oc4c(F)c(F)c(F)c(F)c4F)cc3)/CC(C)(C)C2)cc1 (repeat unit) | 162.00 °C
18 | *C(=O)Nc1ccc(Oc2ccc(C3(c4ccc(Oc5ccc(NC(=O)c6ccc7c(c6)C(=O)N(c6ccc(Oc8cccc(N9C(=O)c%10ccc(*)cc%10C9=O)c8)cc6)C7=O)cc5)cc4)NC(=O)c4ccccc43)cc2)cc1 (repeat unit) | 272.00 °C
19 | *CCCCCCCCCCOc1ccc(-c2cc(-c3ccccc3)c(-c3ccc(NC(=O)c4ccc(C(=O)Nc5ccc(-c6c(-c7ccccc7)cc(-c7ccc(O*)cc7)cc6-c6ccccc6)cc5)cc4)cc3)c(-c3ccccc3)c2)cc1 (repeat unit) | 116.00 °C
20 | *Oc1cccc2ccc(Oc3ccc(NC(=O)c4ccc(S(=O)(=O)c5ccc(C(=O)Nc6ccc(*)cc6)cc5)cc4)cc3)cc12 (repeat unit) | 259.00 °C
21 | *c1ccc(Oc2ccc(NC(=O)c3ccc(Oc4ccc5c(c4)C(=O)N(*)C5=O)cc3)cc2)cc1 (repeat unit) | 262.00 °C

Row | Compound | glass transition temperature
22 | *CC(*)(C)C(=O)NC(=O)OC(C)COc1ccc(S(=O)(=O)c2ccc(OCC(C)O)cc2)cc1 (repeat unit) | 73.00 °C
23 | *Oc1ccc(CC(NC(=O)CCc2ccc(OC(=O)CCCCCCCCC(*)=O)cc2)C(=O)OC(C)CC)cc1 (repeat unit) | 36.00 °C
24 | *c1ccc(Oc2ccc(NC(=O)c3ccc(Oc4cccc5c4C(=O)N(*)C5=O)cc3)cc2)cc1 (repeat unit) | 253.00 °C
25 | *c1ccc(-c2ccc(-c3ccc(-c4ccc(-c5ccc6c(c5)C(=O)N(c5cccc(N7C(=O)c8ccc(*)cc8C7=O)c5)C6=O)cc4)cc3)cc2)cc1 (repeat unit) | 237.00 °C
26 | *C(C)C(*)C(=O)OC(C)C (repeat unit) | 149.00 °C
27 | *CC(c1ccccc1)C1C(=O)N(C(C)(C)C)C(=O)C1* (repeat unit) | 178.00 °C
28 | *Sc1ccc(*)cc1 (repeat unit) [Poly[thio(p-phenylene)] ] | 87 ± 2.2 °C
29 | *c1cc(/N=N/c2ccc(C#N)cc2)cc(*)c1O (repeat unit) | 176.00 °C
30 | *c1ccc(Oc2ccc(C(C)(C)c3ccc(Oc4ccc(-c5nnc(*)n5-c5ccccc5)cc4)cc3)cc2)cc1 (repeat unit) | 207.00 °C
31 | *Oc1ccc(C(=O)OCCOCCOCCOCCOC(=O)c2ccc(OC(=O)c3ccc(C(*)=O)cc3)cc2)cc1 (repeat unit) | 30.00 °C
32 | *C(=O)OCC(C)(C)COC(=O)N1CCN(*)CC1 (repeat unit) | 70.00 °C
33 | *CC(*)(C)C(=O)OCCCCc1ccc(/N=N/c2ccc(OC(F)(F)F)cc2)cc1 (repeat unit) | 203.50 °C
34 | *O[Si](*)(C)CCCCCCOc1ccc(-c2ccc(C#N)cc2)cc1 (repeat unit) | 10.00 °C
35 | *c1ccc(Oc2ccc(N3C(=O)c4ccc(S(=O)(=O)c5ccc6c(c5)C(=O)N(*)C6=O)cc4C3=O)cc2Br)c(Br)c1 (repeat unit) | 281.00 °C
36 | *Nc1ccc(C(C)(C)c2ccc(NC(=O)c3cc(C(*)=O)cc(N4C(=O)C5C6CCC(C6)C5C4=O)c3)cc2)cc1 (repeat unit) | 311.00 °C
37 | *CC(=O)Nc1ccc(Oc2ccc(Oc3ccc(NC(=O)CN4C(=O)c5ccc(C(c6ccc7c(c6)C(=O)N(*)C7=O)(C(F)(F)F)C(F)(F)F)cc5C4=O)cc3)cc2)cc1 (repeat unit) | 242.00 °C
38 | *C(=O)c1ccc2c(c1)C(=O)N(c1ccc(N3C(=O)c4ccc(*)cc4C3=O)c(S(=O)(=O)[O][Na])c1)C2=O (repeat unit) | 214.00 °C
39 | *Oc1ccc(C(C)(C)c2ccc(OC(=O)CC(C)CCC(*)=O)cc2)cc1 (repeat unit) | 56.00 °C
40 | *OC(=O)CCCCCCCCC(*)=O (repeat unit) | 60.00 °C
41 | *Nc1ccc(NC(=O)c2ccc(NC(=O)c3cc(NC(=O)C45CC6CC(CC(C6)C4)C5)cc(C(*)=O)c3)cc2)cc1 (repeat unit) | 365.00 °C
42 | *C(F)(F)C1(F)C(F)(F)C(*)(F)C(F)(F)C(F)(Cl)C1(F)F (repeat unit) | 147.00 °C

Row | Compound | glass transition temperature
43 | *O[Si](C)(C)CCC/N=C1\c2ccccc2/C(=N\CCC[Si](*)(C)C)c2c(O)ccc(O)c21 (repeat unit) | 7.50 °C
44 | *c1ccc(-c2ccc(-c3cc(-c4ccc(Oc5ccc(-c6ccccc6)cc5)cc4)c4cc(-c5ccc6nc(*)cc(-c7ccc(Oc8ccc(-c9ccccc9)cc8)cc7)c6c5)ccc4n3)cc2)cc1 (repeat unit) | 364.00 °C
45 | *c1ccc(Oc2ccc(N3C(=O)c4ccc(Oc5cc6ccccc6cc5Oc5ccc6c(c5)C(=O)N(*)C6=O)cc4C3=O)cc2)cc1 (repeat unit) | 220.50 °C
46 | *Oc1ccc(CC(NC(=O)CCc2ccc(OC(=O)CCCCCCC(*)=O)cc2)C(=O)OC(C)C)cc1 (repeat unit) | 46.00 °C
47 | *c1ccc(Oc2ccc(C(c3ccc(Oc4ccc(N5C(=O)c6ccc(-c7ccc8c(c7)C(=O)N(*)C8=O)cc6C5=O)cc4)cc3)(C(F)(F)F)C(F)(F)F)cc2)cc1 (repeat unit) | 249.50 ± 18 °C
48 | *CCCCCCCCCOC(=O)c1ccc(-c2ccc(C(=O)O*)cc2)cc1 (repeat unit) | 50.50 °C
49 | *c1ccc(Oc2ccc(-c3cnc4cc(Oc5ccc6nc(*)cnc6c5)ccc4n3)cc2)cc1 (repeat unit) | 382.00 °C
50 | *CC(*)(C)C(=O)OCCOCCOCC1COCCOCCOCCO1 (repeat unit) | 10.00 °C
51 | *O[Si](C)(C)c1ccc([Si](C)(C)O[SiH](*)C)cc1 (repeat unit) | -65.00 °C
52 | *Oc1ccc(C(c2ccc(OC(=O)OC3C(C)(C)C(OC(*)=O)C3(C)C)cc2)(C(F)(F)F)C(F)(F)F)cc1 (repeat unit) | 142.00 °C
53 | *c1ccc(Oc2ccc(-n3nccc3-c3ccc(-c4ccnn4*)cc3)cc2)cc1 (repeat unit) | 243.00 °C
54 | *CCCCNC(=O)CCCCC(=O)N* (repeat unit) | 58.00 °C
55 | *CC(*)(C)C(=O)OCC1OC(n2ccc(=O)[nH]c2=O)C(O)C1O (repeat unit) | 143.50 °C
56 | *c1ccc(Oc2ccc(N3C(=O)c4cccc(Oc5cccc(Oc6cccc7c6C(=O)N(*)C7=O)c5)c4C3=O)cc2)cc1 (repeat unit) | 226.00 °C
57 | *CCN(CCN1C(=O)c2ccc(C(c3ccc4c(c3)C(=O)N(*)C4=O)(C(F)(F)F)C(F)(F)F)cc2C1=O)c1ccc(/N=N/c2ccc(C#N)cc2)cc1 (repeat unit) | 213.00 °C
58 | *CCCCCCCCOC(=O)NCCCCCCNC(=O)O* (repeat unit) | 58.00 °C
59 | *CCN(CCOC(=O)c1cc(OC2CCN(c3ccc(S(=O)(=O)C(F)(F)C(F)(F)C(F)(F)C(F)(F)C(F)(F)C(F)(F)C(F)(F)C(F)(F)F)cc3)CC2)cc(C(=O)O*)c1)c1ccc(S(=O)(=O)C(F)(F)C(F)(F)C(F)(F)C(F)(F)C(F)(F)C(F)(F)C(F)(F)C(F)(F)F)cc1 (repeat unit) | 99.00 °C
60 | *Oc1ccc(NC(=C(C#N)C#N)c2ccc(C(Nc3ccc(*)cc3)=C(C#N)C#N)cc2)cc1 (repeat unit) | 274.00 °C
61 | *CCCCCCCCCCN/C(=N/*)c1ccccc1 (repeat unit) | 10.00 °C
62 | *CCOCCOC(=O)CCC(=O)O* (repeat unit) | -38.20 °C
